Experimental data taken from patent US12624018B1, “Inhibitors of RIPK2 and medical uses thereof” (Odyssey Therapeutics, Inc., priority 2022, dated 2026).
Where two headings read alike, the source gives them in different places.

What was measured:
RIPK2 enzyme = target: T1, RIPK2 enzyme (Homo sapiens, UniProt O43353); assay: RIPK2 inhibition (ADP-Glo Kinase Assay); assay type: biochemical; details: RIPK2 5 nM, ATP 150 μM, MBP substrate, read-out: RIPK2 IC50
T1 construct: purchased Carna 09-128
In short: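 Human RIPK2 (5 nM) preincubated with compound 30 min at room temperature in 50 mM HEPES pH 7.5, 10 mM MgCl2, 2 mM DTT, 1 mM EGTA, 0.01% Brij-35, 0.05% BSA; native swine MBP as substrate. ADP formed quantified by ADP-Glo luminescence; percent inhibition relative to DMSO and no-enzyme controls.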

human NOD2 signaling = assay: Inhibition of human NOD2 signaling in HEK-Blue-hNOD2 cells (L18-MDP stimulated, SEAP reporter); assay type: cell-based; details: NOD2 ligand stimulation, SEAP reporter, read-out: hNOD2 IC50
In short: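 HEK-Blue-hNOD2 cells (HEK293 with NOD2 and SEAP reporter), 12500/well, treated with 10-point 3-fold compound dilutions plus L18-MDP 0.5 ng/mL final, 24 h at 37 °C. Supernatant SEAP read with QUANTI-Blue after 3 h at 620 nm; IC50 by 4-parameter fit vs DMSO±L18-MDP controls.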

[1] = tested on: TNF-alpha secretion in human whole blood; assay: Inhibition of TNF-alpha secretion in human whole blood (IFN-gamma primed, L18-MDP stimulated); assay type: cell-based; details: L18-MDP 100 ng/mL, read-out: Human Whole Blood TNFα IC50
Experimental: Materials: Assay medium consisted of RPMI 1640 medium (catalogue number: 11875119) and 10% heat inactivated FBS (Cytvia). U-PLEX Biomarker Assay (cat #K15067L-4) to detect levels of TNF-alpha was purchased from Meso Scale Discovery. Heparinized whole blood from healthy donors/volunteers was obtained through Research Blood Components, LLC.
Test compounds were prepared into a 10 mM DMSO solution and serially diluted into 9 points using a 3-fold dilution in a 96 well plate. A 10× working stock solution of recombinant human IFN-gamma (final concentration of 10 ng/mL) was prepared in assay medium and used to prepare a 10× solution of test compound. 20 μL of 10×IFN-gamma and test compound (or DMSO control) was added to a 96-well plate. 160 μL of heparinized whole blood obtained from healthy donors was dispensed into individual wells of the 96-well plate and placed on a plate shaker (150 rpm) and incubated for 60 min at 37° C. in a CO2 incubator. Subsequently, 20 μL of L18-MDP (final concentration of 100 ng/mL) was added to the appropriate wells and further incubated for 16 hours on a plate shaker (150 rpm) at 37° C. in a CO2 incubator. The final concentration of DMSO was 0.05% (v/v) in all wells. After incubation, 100 μL of DPBS was added per well, mixed by shaking at 500 rpm for 2 minutes, followed by centrifugation (400×g for 10 minutes) and collection of supernatants. TNF-alpha in supernatants was measured using MSD immunoassay (MesoScale Discovery). 4-parametric curve fit was used to determine the test compound concentration that results in 50% reduction of TNF-alpha concentration in supernatant relative to assay controls.

[2] = target: T2, RIPK2 and XIAP protein-protein interaction (Homo sapiens, UniProt O43353); assay: Inhibition of the interaction of RIPK2 with XIAP (NanoBRET in HEK293T cells); assay type: cell-based; details: RIPK2 HaloTag / XIAP NanoLuc, read-out: NanoBRET Scaffolding IC50
T2 construct: the N-terminus of full-length RIPK2 was appended with the HaloTag fusion protein; expressed in transfected cells; host or cells: HEK293T
In short: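 HEK293T cells transiently co-transfected with HaloTag-RIPK2 (N-terminal) and XIAP-NanoLuc (C-terminal) full-length fusions, grown 24 h at 37° C. in Opti-MEM with 4% FBS. Compounds tested as 10-point 3-fold dilutions; NanoBRET ratio taken as 618 nm acceptor over 460 nm donor emission.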

[3] = Homo sapiens, HEK-Blue hNOD2, HEK-Blue-hNOD2 cells

T1 sequence (O43353 1-299 limits assumed): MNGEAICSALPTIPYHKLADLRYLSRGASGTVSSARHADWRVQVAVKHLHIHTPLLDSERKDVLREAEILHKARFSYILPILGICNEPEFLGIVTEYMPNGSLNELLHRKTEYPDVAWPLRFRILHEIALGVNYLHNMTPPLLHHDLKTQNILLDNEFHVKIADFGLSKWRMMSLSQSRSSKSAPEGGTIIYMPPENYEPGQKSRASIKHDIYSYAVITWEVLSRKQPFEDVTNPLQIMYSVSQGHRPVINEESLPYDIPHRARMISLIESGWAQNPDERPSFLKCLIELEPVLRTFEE
T2 sequence (O43353 whole entry, the tested form may be a part): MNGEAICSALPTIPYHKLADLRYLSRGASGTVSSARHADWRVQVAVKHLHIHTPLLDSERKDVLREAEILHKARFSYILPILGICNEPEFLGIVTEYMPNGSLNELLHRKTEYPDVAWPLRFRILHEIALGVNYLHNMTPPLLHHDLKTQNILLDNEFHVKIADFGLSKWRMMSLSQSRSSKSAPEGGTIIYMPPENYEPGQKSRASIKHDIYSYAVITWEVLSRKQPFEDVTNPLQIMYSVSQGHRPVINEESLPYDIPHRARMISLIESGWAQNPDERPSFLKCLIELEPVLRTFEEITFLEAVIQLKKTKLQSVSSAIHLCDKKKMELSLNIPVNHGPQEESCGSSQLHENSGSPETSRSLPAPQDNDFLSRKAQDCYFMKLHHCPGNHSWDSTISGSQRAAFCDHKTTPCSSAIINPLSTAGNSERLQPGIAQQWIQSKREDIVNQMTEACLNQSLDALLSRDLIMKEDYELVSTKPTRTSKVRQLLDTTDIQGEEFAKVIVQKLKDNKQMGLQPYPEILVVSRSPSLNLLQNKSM

Row | SMILES | IC50 (RIPK2 enzyme) [nM] | IC50 (human NOD2 signaling; [3]) [nM] | IC50 ([1]; Homo sapiens, 16 h) [nM] | IC50 [2] [nM] | IC50 (human NOD2 signaling; HEK-Blue-hNOD2 cells) [nM] | IC50 ([1]; 16 hours) [nM]
1 | CN1CCC(Oc2ccc3ncnc(Oc4cnc(CC(=O)Nc5cnn(C(C)(C)C)c5)c(F)c4)c3c2)CC1 [Compound 20, N-(1-(tert-butyl)-1H-pyrazol-4-yl)-2-(3-fluoro-5-((6-((1-methylpiperidin-4-yl)oxy)quinazolin-4-yl)oxy)pyridin-2-yl)acetamide] | 10.4 | 21.7 | 12 | 144 | – | –
2 | CC(C)(C)n1cc(NC(=O)Cc2ccc(Oc3ccnc4ccc(S(C)(=N)=O)cc34)cc2F)cn1 (stereo not shown) [Compound 43, N-(1-(tert-butyl)-1H-pyrazol-4-yl)-2-(2-fluoro-4-((6-(S-methylsulfonimidoyl)quinolin-4-yl)oxy)phenyl)acetamide] | 4.8 | 39.3 | 5 | 218 | – | –
3 | CN1CCC(Oc2ccc3nccc(Oc4cnc(CC(=O)Nc5cnn(C(C)(C)C)c5)c(F)c4)c3c2)CC1 [Compound 78, N-(1-(tert-butyl)-1H-pyrazol-4-yl)-2-(3-fluoro-5-((6-((1-methylpiperidin-4-yl)oxy)quinolin-4-yl)oxy)pyridin-2-yl)acetamide] | 13.4 | 32.7 | 7 | 37 | – | –
4 | Cc1cc(CC(=O)Nc2cnn(C(C)(C)C)c2)ccc1Oc1ccnc2ccc(OC3CCN(C)CC3)cc12 [Compound 82, N-(1-(tert-butyl)-1H-pyrazol-4-yl)-2-(3-methyl-4-((6-((1-methyl-piperidin-4-yl)oxy)quinolin-4-yl)oxy)phenyl) acetamide] | < 2.5 | – | – | 6 | 1.9 | 4
5 | Cc1cc(CC(=O)Nc2cnn(C(C)(C)C)c2)ccc1Oc1ncnc2ccc(OC3CCN(C)CC3)cc12 [Compound 84, N-(1-(tert-butyl)-1H-pyrazol-4-yl)-2-(3-methyl-4-((6-((1-methyl-piperidin-4-yl)oxy)quinazolin-4-yl)oxy)phenyl) acetamide] | 9.3 | – | – | 37 | 19.2 | 4
6 | CC(C)(C)n1cc(NC(=O)Cc2ccc(Oc3ccnc4ccc(S(C)(=O)=O)cc34)c(C(F)F)c2)cn1 [Compound 92, N-(1-(tert-butyl)-1H-pyrazol-4-yl)-2-(3-(difluoromethyl)-4-((6-(methylsulfonyl)quinolin-4-yl)oxy)phenyl)acetamide] | < 2.5 | 6.6 | 40 | 132 | – | –
7 | Cc1c(Oc2ccnc3ccc(S(=O)(=O)C4CC4)cc23)ccc(CC(=O)Nc2cnn(C(C)(C)C)c2)c1F [Compound 174, N-(1-(tert-butyl)-1H-pyrazol-4-yl)-2-(4-((6-(cyclopropylsulfonyl)quinolin-4-yl)oxy)-2-fluoro-3-methylphenyl)acetamide] | < 2.5 | 0.2 | 2 | 5 | – | –
8 | Cc1cc(CC(=O)Nc2cnn(C(C)(C)C)c2)ccc1Oc1ccnc2ccc(P(C)(C)=O)cc12 [Compound 179, N-(1-(tert-butyl)-1H-pyrazol-4-yl)-2-(4-((6-(dimethylphosphoryl)quinolin-4-yl)oxy)-3-methylphenyl) acetamide] | < 2.5 | 38.1 | 6 | 465 | – | –
9 | Cc1cc(CC(=O)Nc2noc(C(C)(C)C)n2)ccc1Oc1ccnc2ccc(S(C)(=O)=O)cc12 [Compound 182, N-(5-(tert-butyl)-1,2,4-oxadiazol-3-yl)-2-(3-methyl-4-((6-(methylsulfonyl)quinolin-4-yl)oxy)phenyl) acetamide] | < 2.5 | 2 | 14 | 18 | – | –
10 | Cc1cc(CC(=O)Nc2cnn(C34CC(C3)C4)c2)ccc1Oc1ccnc2ccc(S(C)(=O)=O)cc12 [Compound 239, N-(1-(bicyclo[1.1.1]pentan-1-yl)-1H-pyrazol-4-yl)-2-(3-methyl-4-((6-(methylsulfonyl)quinolin-4-yl)oxy)phenyl)acetamide] | < 2.5 | 2.9 | 37 | 20 | – | –
11 | Cc1cc(CC(=O)Nc2cnn(C(C)(C)C)c2)ccc1Oc1ncnc2ccc(CN3CCNCC3)cc12 [Compound 253, N-(1-(tert-butyl)-1H-pyrazol-4-yl)-2-(3-methyl-4-((6-(piperazin-1-ylmethyl)quinazolin-4-yl)oxy)phenyl)acetamide] | < 2.5 | 7.2 | 7 | 174 | – | –
12 | Cc1cc(CC(=O)Nc2cnn(C(C)(C)C)c2)cc(F)c1Oc1ccnc2ccc(S(C)(=O)=O)cc12 [Compound 299, N-(1-(tert-butyl)-1H-pyrazol-4-yl)-2-(3-fluoro-5-methyl-4-((6-(methylsulfonyl)quinolin-4-yl)oxy)phenyl)acetamide] | < 2.5 | 3.4 | 49 | 73 | – | –
13 | COc1cc2nccc(Oc3ccc(CC(=O)Nc4cnn(C(C)(C)C)c4)cc3C(F)F)c2cc1S(C)(=O)=O [Compound 413, N-(1-(tert-butyl)-1H-pyrazol-4-yl)-2-(3-(difluoromethyl)-4-((7-methoxy-6-(methylsulfonyl)quinolin-4-yl)oxy)phenyl) acetamide] | < 2.5 | 2.5 | 13 | 27 | – | –
14 | CC(C)(C)n1cc(NC(=O)Cc2cc(Cl)c(Oc3ccnc4ccc(S(C)(=O)=O)cc34)cc2F)cn1 [Compound 429, N-(1-(tert-butyl)-1H-pyrazol-4-yl)-2-(5-chloro-2-fluoro-4-((6-(methylsulfonyl)quinolin-4-yl)oxy)phenyl)acetamide] | < 2.5 | 1.6 | 18 | 44 | – | –
15 | Cc1cc(CC(=O)Nc2nnc(C(C)(C)C)s2)c(F)cc1Oc1ccnc2ccc(S(C)(=O)=O)cc12 [Compound 443, N-(5-(tert-butyl)-1,3,4-thiadiazol-2-yl)-2-(2-fluoro-5-methyl-4-((6-(methylsulfonyl)quinolin-4-yl)oxy)phenyl) acetamide] | < 2.5 | 1.1 | 83 | 11 | – | –
16 | Cc1cc(CC(=O)Nc2cnn(C(C)(C)C)c2)c(F)cc1Oc1ccnc2cc(F)c(C(N)=O)cc12 [Compound 465, 4-(4-(2-((1-(tert-butyl)-1H-pyrazol-4-yl)amino)-2-oxoethyl)-5-fluoro-2-methylphenoxy)-7-fluoroquinoline-6-carboxamide] | < 2.5 | 0.2 | 2.6 | 4.2 | – | –
17 | Cc1cc(CC(=O)Nc2cnn(C(C)(C)C)c2)cc(F)c1Oc1ccnc2ccc(C(N)=O)cc12 [Compound 468, 4-(4-(2-((1-(tert-butyl)-1H-pyrazol-4-yl)amino)-2-oxoethyl)-2-fluoro-6-methylphenoxy)quinoline-6-carboxamide] | < 2.5 | 2.1 | 8.4 | 69.1 | – | –
18 | Cc1c(Oc2ccnc3ccc(S(C)(=O)=O)cc23)cc(F)c(CC(=O)Nc2cnn(C(C)(C)C)c2)c1F [Compound 472, N-(1-(tert-butyl)-1H-pyrazol-4-yl)-2-(2,6-difluoro-3-methyl-4-((6-(methylsulfonyl)quinolin-4-yl)oxy)phenyl)acetamide] | < 2.5 | 0.3 | 4.1 | 13.3 | – | –
19 | [2H]C([2H])([2H])NC(=O)c1ccc2nccc(Oc3cc(F)c(CC(=O)Nc4cnn(C(C)(C)C)c4)cc3C)c2c1 [Compound 492, 4-(4-(2-((1-(tert-butyl)-1H-pyrazol-4-yl)amino)-2-oxoethyl)-5-fluoro-2-methylphenoxy)-N-(methyl-d3)quinoline-6-carboxamide] | < 2.5 | 3.7 | 5.9 | 22 | – | –
